Assay results reported in patent US10385024B2, “Compounds and methods for inhibiting NHE-mediated antiport in the treatment of disorders associated with fluid retention or salt overload and gastrointestinal tract disorders” (Ardelyx, Inc., priority 2012, dated 2019).

Columns and labels:
[1] = biological target: T1, Rat NHE-3 (Rattus norvegicus, UniProt P26433); assay: Cell-based assay of NHE-3 activity (rat NHE-3 prompt inhibition); conditions: OK cells with rat NHE-3 gene, compound present during pH recovery; read-out: Rat NHE3 pIC50 (prompt) (converted)
T1 construct: expressed in transfected cells; host or cells: Opossum kidney (OK) cells (ATCC), transfected by electroporation
Procedure: (§1) Rat or human NHE-3-mediated Na^+-dependent H^+ antiport was measured using a modification of the pH sensitive dye method originally reported by Paradiso (Proc. Natl. Acad. Sci. USA. (1984) 81(23): 7436-7440). Opossum kidney (OK) cells were obtained from the ATCC and propagated per their instructions. The rat NHE-3 gene (GenBank M85300) or the human NHE-3 gene (GenBank NM_004174.1) was introduced into OK cells via electroporation, and cells were seeded into 96 well plates and grown overnight. Medium was aspirated from the wells, cells were washed twice with NaCl-HEPES buffer (100 mM NaCl, 50 mM HEPES, 10 mM glucose, 5 mM KCl, 2 mM CaCl2, 1 mM MgCl2, pH 7.4), then incubated for 30 min at room temperature with NH4Cl-HEPES buffer (20 mM NH4Cl, 80 mM NaCl, 50 mM HEPES, 5 mM KCl, 2 mM CaCl2, 1 mM MgCl2, pH 7.4) containing 5 μM bis(acetoxymethyl) 3,3′-(3′,6′-bis(acetoxymethoxy)-5-((acetoxymethoxy)carbonyl)-3-oxo-3H-spiro[isobenzofuran-1,9′-xanthene]-2′,7′-diyl)dipropanoate (BCECF-AM). Cells were washed twice with Ammonium free, Na^+-free HEPES (100 mM choline, 50 mM HEPES, 10 mM glucose, 5 mM KCl, 2 mM CaCl2, 1 mM MgCl2, pH 7.4) and incubated in the same buffer for 10 minutes at room temperature to lower intracellular pH. […] Initial rates were plotted as the average 2 or more replicates, and pIC50 values were estimated using GraphPad Prism.

[2] = biological target: T2, human NHE-3 (Homo sapiens, UniProt P48764); assay: Cell-based assay of NHE-3 activity (human NHE3 inhibition assay); conditions: OK cells with human NHE-3 gene, BCECF pH dye, 0-30 μM test compound; for IC50: read-out: Human NHE3 pIC50 (converted)
T2 construct: expressed in transfected cells; host or cells: Opossum kidney (OK) cells (ATCC), transfected by electroporation
T2 sequence (P48764 26-834): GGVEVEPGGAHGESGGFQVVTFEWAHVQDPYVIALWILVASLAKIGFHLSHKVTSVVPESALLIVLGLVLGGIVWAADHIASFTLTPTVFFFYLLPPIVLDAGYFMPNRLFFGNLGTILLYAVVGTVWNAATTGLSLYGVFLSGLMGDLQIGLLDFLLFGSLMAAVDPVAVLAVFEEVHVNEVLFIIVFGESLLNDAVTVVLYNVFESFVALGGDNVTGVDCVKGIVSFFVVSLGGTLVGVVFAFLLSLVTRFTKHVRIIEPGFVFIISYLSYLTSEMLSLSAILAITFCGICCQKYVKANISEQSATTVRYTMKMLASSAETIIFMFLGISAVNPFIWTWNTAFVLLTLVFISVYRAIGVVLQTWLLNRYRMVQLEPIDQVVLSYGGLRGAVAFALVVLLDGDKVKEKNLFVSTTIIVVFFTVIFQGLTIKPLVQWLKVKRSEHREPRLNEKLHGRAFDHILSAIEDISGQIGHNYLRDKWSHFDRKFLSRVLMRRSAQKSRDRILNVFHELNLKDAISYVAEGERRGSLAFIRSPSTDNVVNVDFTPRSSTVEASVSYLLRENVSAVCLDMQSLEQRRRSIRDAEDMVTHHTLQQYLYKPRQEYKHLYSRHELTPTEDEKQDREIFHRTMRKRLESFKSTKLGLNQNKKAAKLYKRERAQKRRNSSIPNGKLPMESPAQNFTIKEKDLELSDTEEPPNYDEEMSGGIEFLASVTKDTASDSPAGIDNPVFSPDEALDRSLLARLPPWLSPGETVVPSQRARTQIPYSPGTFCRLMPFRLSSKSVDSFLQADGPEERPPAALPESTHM
Procedure: as §1

[3] = biological target: T1, Rat NHE-3; assay: Cell-based assay of NHE-3 activity (persistent inhibition, after washout); conditions: OK cells with rat NHE-3 gene, 60 min incubation, recovery initiated 40 min after compound washout; read-out: Rat NHE3 pIC50 (persistent) (converted)
Procedure: The ability of compounds to inhibit Rat NHE-3-mediated Na^+-dependent H^+ antiport after application and washout was measured using a modification of the pH sensitive dye method described above in Example 74. Opossum kidney (OK) cells were obtained from the ATCC and propagated per their instructions. The rat NHE-3 gene was introduced into OK cells via electroporation, and cells were seeded into 96 well plates and grown overnight. Medium was aspirated from the wells, cells were washed twice with NaCl-HEPES buffer (100 mM NaCl, 50 mM HEPES, 10 mM glucose, 5 mM KCl, 2 mM CaCl2, 1 mM MgCl2, pH 7.4), then overlayed with NaCl-HEPES buffer containing 0-30 μM test compound. After a 60 min incubation, the test drug containing buffer was aspirated from the cells, cells were washed twice with NaCl-HEPES buffer without drug, then incubated for 30 min at room temperature with NH4Cl-HEPES buffer (20 mM NH4Cl, 80 mM NaCl, 50 mM HEPES, 5 mM KCl, 2 mM CaCl2, 1 mM MgCl2, pH 7.4) containing 5 μM BCECF-AM. Cells were washed twice with ammonium free, Na^+-free HEPES (100 mM choline, 50 mM HEPES, 10 mM glucose, 5 mM KCl, 2 mM CaCl2, 1 mM MgCl2, pH 7.4) and incubated in the same buffer for 10 minutes at room temperature to lower intracellular pH. […] Initial rates were plotted as the average 2 or more replicates, and pIC50 values were estimated using GraphPad Prism.

T1 sequence (P26433 29-831): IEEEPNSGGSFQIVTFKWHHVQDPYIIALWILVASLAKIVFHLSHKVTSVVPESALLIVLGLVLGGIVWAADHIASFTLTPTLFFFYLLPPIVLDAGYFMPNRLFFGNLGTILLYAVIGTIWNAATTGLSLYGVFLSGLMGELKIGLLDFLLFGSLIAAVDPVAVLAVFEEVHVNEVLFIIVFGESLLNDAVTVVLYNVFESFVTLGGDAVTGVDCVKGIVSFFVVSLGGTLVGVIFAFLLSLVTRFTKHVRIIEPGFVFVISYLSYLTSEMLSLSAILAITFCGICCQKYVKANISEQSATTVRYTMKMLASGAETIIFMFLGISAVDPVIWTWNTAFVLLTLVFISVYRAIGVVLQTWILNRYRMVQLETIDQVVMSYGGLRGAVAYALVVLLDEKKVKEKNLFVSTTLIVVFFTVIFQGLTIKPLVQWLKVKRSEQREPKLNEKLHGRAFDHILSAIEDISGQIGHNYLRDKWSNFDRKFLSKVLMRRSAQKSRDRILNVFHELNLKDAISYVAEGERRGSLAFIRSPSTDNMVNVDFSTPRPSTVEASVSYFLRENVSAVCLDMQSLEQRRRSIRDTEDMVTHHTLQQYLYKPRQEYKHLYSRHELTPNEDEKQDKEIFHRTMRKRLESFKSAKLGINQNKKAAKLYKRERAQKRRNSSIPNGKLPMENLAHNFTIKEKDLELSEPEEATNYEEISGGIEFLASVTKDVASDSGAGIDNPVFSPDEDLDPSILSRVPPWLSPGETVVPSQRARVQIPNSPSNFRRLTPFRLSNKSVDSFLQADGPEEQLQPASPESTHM

For CN1Cc2c(Cl)cc(Cl)cc2[C@H](c2cccc(S(=O)(=O)NCCOCCOCCNC(=O)CCC(CCC(=O)NCCOCCOCCNS(=O)(=O)c3cccc([C@@H]4CN(C)Cc5c(Cl)cc(Cl)cc54)c3)(CCC(=O)NCCOCCOCCNS(=O)(=O)c3cccc([C@@H]4CN(C)Cc5c(Cl)cc(Cl)cc54)c3)[N+](=O)[O-])c2)C1 [Example 1, N1,N7-bis(2-(2-(2-(3-((S)-6,8-dichloro-2-methyl-1,2,3,4-tetrahydroisoquinolin-4-yl)phenylsulfonamido)ethoxy)ethoxy)ethyl)-4-(3-(2-(2-(2-(3-((S)-6,8-dichloro-2-methyl-1,2,3,4-tetrahydroisoquinolin-4-yl)phenylsulfonamido)ethoxy)ethoxy)ethylamino)-3-oxopropyl)-4-nitroheptanediamide], the IC50 [1] was 100 to 10000 nM, the IC50 [2] was 100 to 10000 nM and the IC50 [3] was < 100 nM.
In the case of CN1Cc2c(Cl)cc(Cl)cc2[C@H](c2cccc(S(=O)(=O)NCCOCCOCCOCCNC(=O)CCC(CCC(=O)NCCOCCOCCOCCNS(=O)(=O)c3cccc([C@@H]4CN(C)Cc5c(Cl)cc(Cl)cc54)c3)(CCC(=O)NCCOCCOCCOCCNS(=O)(=O)c3cccc([C@@H]4CN(C)Cc5c(Cl)cc(Cl)cc54)c3)NC(=O)Nc3ccccc3)c2)C1 [Example 13, 4-(1-(3-((S)-6,8-dichloro-2-methyl-1,2,3,4-tetrahydroisoquinolin-4-yl)phenylsulfonamido)-13-oxo-3,6,9-trioxa-12-azapentadecan-15-yl)-N^1,N^7-bis(2-(2-(2-(2-(3-((S)-6,8-dichloro-2-methyl-1,2,3,4-tetrahydroisoquinolin-4-yl)phenylsulfonamido)ethoxy)ethoxy)ethoxy)ethyl)-4-(3-phenylureido)heptanediamide], the IC50 [1] is reported as 100 to 10000 nM, the IC50 [2] is reported as 100 to 10000 nM and the IC50 [3] is reported as < 100 nM.
In the case of CN1Cc2c(Cl)cc(Cl)cc2[C@H](c2cccc(S(=O)(=O)NCCOCCOCCNC(=O)CCC(CCC(=O)NCCOCCOCCNS(=O)(=O)c3cccc([C@@H]4CN(C)Cc5c(Cl)cc(Cl)cc54)c3)(CCC(=O)NCCOCCOCCNS(=O)(=O)c3cccc([C@@H]4CN(C)Cc5c(Cl)cc(Cl)cc54)c3)NC(=O)c3ccc(-c4ccc(Cl)cc4)cc3)c2)C1 [Example 35], the “Human NHE3 pIC50” value [2] is reported as “B (B NHE3 pIC50 5-7)”.
In the case of CN1Cc2c(Cl)cc(Cl)cc2[C@H](c2cccc(S(=O)(=O)NCCOCCOCCNC(=O)CN(CCOCCOCCN(CC(=O)NCCOCCOCCNS(=O)(=O)c3cccc([C@@H]4CN(C)Cc5c(Cl)cc(Cl)cc54)c3)CC(=O)NCCOCCOCCNS(=O)(=O)c3cccc([C@@H]4CN(C)Cc5c(Cl)cc(Cl)cc54)c3)CC(=O)NCCOCCOCCNS(=O)(=O)c3cccc([C@@H]4CN(C)Cc5c(Cl)cc(Cl)cc54)c3)c2)C1 [Example 50], the “Human NHE3 pIC50” value [2] is reported as “B (B NHE3 pIC50 5-7)”.
In the case of CN1Cc2c(Cl)cc(Cl)cc2[C@H](c2cccc(S(=O)(=O)NCCOCCOCCNC(=O)NCCN(CCNC(=O)NCCOCCOCCNS(=O)(=O)c3cccc([C@@H]4CN(C)Cc5c(Cl)cc(Cl)cc54)c3)C(=O)NCCCCNC(=O)N(CCNC(=O)NCCOCCOCCNS(=O)(=O)c3cccc([C@@H]4CN(C)Cc5c(Cl)cc(Cl)cc54)c3)CCNC(=O)NCCOCCOCCNS(=O)(=O)c3cccc([C@@H]4CN(C)Cc5c(Cl)cc(Cl)cc54)c3)c2)C1 [Example 60], the “Human NHE3 pIC50” value [2] is reported as “C (C NHE3 pIC50 > 7)”.
CN1Cc2c(Cl)cc(Cl)cc2[C@H](c2cccc(S(=O)(=O)NCCOCCOCCN(C)C(=O)CCC(CCC(=O)N(C)CCOCCOCCNS(=O)(=O)c3cccc([C@@H]4CN(C)Cc5c(Cl)cc(Cl)cc54)c3)(CCC(=O)N(C)CCOCCOCCNS(=O)(=O)c3cccc([C@@H]4CN(C)Cc5c(Cl)cc(Cl)cc54)c3)N(C)C)c2)C1 [Example 71] was tested, and the “Human NHE3 pIC50” value [2] was “C (C NHE3 pIC50 > 7)”.
